Here are results for one molecule from PMC11997999, “Uncovering α-Selectivity for Liver X Receptor Agonists for Lipotoxic Cancer Therapies” (Journal of Medicinal Chemistry, 2025).

The subject of one data set is AML12 cells. Briefly: Cell viability analysis in untransformed liver cells AML12 (CellTiter-Glo). Type of data set: cell-based. To be noted: AML12, 5d, with 2 μM sorafenib. As for the experimental part: To further determine the therapeutic potential of compound 40, we analyzed the effect of a combinatorial lipotoxic therapy with this agonist in untransformed liver cells. We applied the well-established untransformed liver cell lines AML12 and BNL CL.2 and subjected them to treatment with 40 in combination with sorafenib.
For organoid treatment studies, digestion of organoids was performed using TrypLE Express (Gibco) supplemented with 100 μg/mL DNaseI and 10.5 μM Y-27632 dihydrochloride (Invitrogen) at 37 °C, and afterward, single-cells were plated in white 96 well plates (Sarstedt) in a mixture of 10% Matrigel (Growth Factor Reduced (GFR) Matrigel, Corning) in culture medium. Cell viability was determined after 5 days of treatment using the CellTiter-Glo 3D Cell Viability Assay Kit (Promega). Cell viability of Hep3B, AML12, and BNL CL.2 cells was determined after 5 days of treatment in white 96 well plates (Sarstedt) using the CellTiter-Glo 2.0 Cell Viability Assay Kit (Promega). AML12 and BNL CL.2 cells were also obtained from the American Type Culture Collection. The luminescence signal was measured using an […] M PLEX plate reader (Tecan) and the Tecan i-control software (v3.9.1). Sodium oleate (Selleckchem) was dissolved in methanol and added to cells at a final concentration of 200 μM.

Another data set addresses T1, LXRα LBD (GST) (Homo sapiens, UniProt Q13133).
T1 construct: 5 nM LXRα LBD (GST); 10 nM LXRβ LBD (GST); purchased ThermoFisher Scientific PV4655
T1 sequence (Q13133 209-447 limits assumed): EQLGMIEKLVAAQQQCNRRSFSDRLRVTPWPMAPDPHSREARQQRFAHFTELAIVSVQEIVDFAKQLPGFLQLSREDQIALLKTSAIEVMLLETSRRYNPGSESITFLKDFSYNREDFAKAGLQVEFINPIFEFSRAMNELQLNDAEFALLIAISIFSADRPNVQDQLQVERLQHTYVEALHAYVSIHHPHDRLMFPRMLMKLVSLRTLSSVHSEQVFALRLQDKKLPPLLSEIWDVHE
Briefly: Time-resolved LXR FRET assay (LanthaScreen TR-FRET LXRα Coactivator Assay Kit). It is filed as biochemical. To be noted: 5 nM LXRα LBD (GST), read after 6 h; R^2 of fit given; read-out: TR-FRET activity (EC50) LXRα. A general note: In TR-FRET formats the signal depends on donor and acceptor labels being close together.

Another data set deals with T2, LXRα (Homo sapiens, UniProt Q13133).
T2 construct: To measure the activity of the remaining isoform under treatment; endogenous in cells; host or cells: Hep3B (NR1H2 knockout, LXRE-GFP reporter)
T2 sequence (Q13133 1-447): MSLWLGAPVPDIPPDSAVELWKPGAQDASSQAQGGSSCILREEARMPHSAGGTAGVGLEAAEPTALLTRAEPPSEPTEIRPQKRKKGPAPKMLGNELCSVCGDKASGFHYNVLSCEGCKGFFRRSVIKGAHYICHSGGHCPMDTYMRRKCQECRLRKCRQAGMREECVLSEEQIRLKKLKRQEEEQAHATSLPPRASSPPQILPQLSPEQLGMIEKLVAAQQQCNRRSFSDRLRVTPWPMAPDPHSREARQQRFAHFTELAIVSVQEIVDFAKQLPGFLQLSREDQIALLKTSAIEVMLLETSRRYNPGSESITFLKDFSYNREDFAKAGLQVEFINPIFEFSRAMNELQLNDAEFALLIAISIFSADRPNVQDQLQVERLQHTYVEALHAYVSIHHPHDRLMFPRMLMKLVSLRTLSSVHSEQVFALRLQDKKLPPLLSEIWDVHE
Nature of the data set: LXRα-specific LXRE-GFP reporter assay in Hep3B cells (NR1H2 knockout). Type of data set: cell-based. The note with it: 48h of treatment, GFP by FACS. A general note: Reporter assays use an easily measured gene product as a stand-in for the process of interest.

As usually defined, the EC50 is the concentration giving half of the maximal effect.

For the molecule `O=C1C(Nc2ccc(N3CCCCC3)cc2)=C(c2ccccc2)C(=O)N1Cc1ccccc1` [Compound 40, 1-Benzyl-3-phenyl-4-((4-(piperidin-1-yl)phenyl)amino)-1H-pyrrole-2,5-dione], the “sensitivity of untransformed liver cells to combination therapy (cell viability)” value in the data set on AML12 cells is “only very low sensitivity”. Besides, the EC50 was 42 nM on LXRα LBD (GST) and 27 nM at LXRα.
